Measurements taken from US7094798B1, “Inhibitors of checkpoint kinases (Wee1 and Chk1)” (Pfizer Inc, priority 2002, dated 2006).
Like-named read-outs stand apart in the source and are kept apart here. Blank lines part the entries; values can stand above or below the molecule they belong to.

Experiments:
[1] = target: T1, human Wee1 kinase aa215-647 (Homo sapiens, UniProt P30291); assay: Wee1 inhibition filter binding assay (OY); format: biochemical; settings: isolated Wee1 kinase, Poly Ornithine:Tyrosine (4:1) substrate; read-out: WEE1OY IC50
T1 construct: human Wee1 kinase aa215-647; purchased Onyx Pharmaceuticals; host or cells: baculovirus protein expression system
T1 sequence (P30291 215-646 limits assumed): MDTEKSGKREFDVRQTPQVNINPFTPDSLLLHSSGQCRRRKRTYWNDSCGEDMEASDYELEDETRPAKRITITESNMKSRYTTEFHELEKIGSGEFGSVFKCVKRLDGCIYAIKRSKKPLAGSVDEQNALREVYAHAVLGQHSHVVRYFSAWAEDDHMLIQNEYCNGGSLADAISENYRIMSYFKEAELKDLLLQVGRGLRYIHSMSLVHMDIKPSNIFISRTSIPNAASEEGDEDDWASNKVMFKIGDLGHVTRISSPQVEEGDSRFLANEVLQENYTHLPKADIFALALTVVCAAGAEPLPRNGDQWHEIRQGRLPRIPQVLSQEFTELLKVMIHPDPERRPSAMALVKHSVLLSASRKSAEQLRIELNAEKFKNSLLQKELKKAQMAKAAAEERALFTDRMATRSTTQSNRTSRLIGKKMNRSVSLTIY
Method: This assay provides a measure of inhibitory ability of the test compounds against isolated Wee1 kinase.
The Wee1 kinase assay measures enzyme mediated phosphorylation of tyrosine on a synthetic peptide substrate in the presence of compounds being tested. […] Compounds were dissolved and diluted in DMSO, 10 μl 3×EDB buffer (150 mM Tris, pH 8.0, 30 mM NaCl, 30 mM MgCl2, 3 mM DTT), 18 μl water, and 2 μl of drug dilution were added to the test wells and mixed thoroughly, 10 μl of enzyme-substrate mixture was added to the wells. […] The plates were mixed thoroughly for 5 minutes at room temperature. […] The reaction was stopped by adding 50 μl of ice cold 20% TCA with 0.1 M tetrasodium pyro-phosphate. Plates were incubated on ice or refrigerated at 4° C. for 1 hour. Liquid reaction mixture was removed on a vacuum manifold, and the precipitated phosphorylated substrate was rinsed 5 times with 200 μl ice cold 10% TCA with 0.1 M tetrasodium pyrophosphate. 25 μl liquid scintillation cocktail were added to the membrane bound substrate and the plate read in a Microbeta (Perkin-Elmer) plate reader. Activity of compounds was calculated in comparison to uninhibited control determinations in each assay.

[2] = target: T2, PKC contained in a rat brain preparation; assay: Protein Kinase C (PKC) assay; format: biochemical; settings: histone H1 substrate
T2 construct: Enzyme was prepared from a preparation of rat brain (Promega) 0.5 μg diluted with 1.6 ml of 10 mM Hepes buffer pH 7.5
Method: The PKC assay provides a measure of inhibitory activity of the test compounds against PKC contained in a rat brain preparation.
Enzyme was prepared from a preparation of rat brain (Promega) 0.5 μg diluted with 1.6 ml of 10 mM Hepes buffer pH 7.5. Reaction buffer was comprised of 150 mM Hepes buffer, 4 mM CaCl2, 15 mM MgCl2, 3 mM EDTA, 3.75 mM EGTA at pH 7.5. Histone substrate was made by dissolving histone H1 (Sigma) in water at 1.5 mg/ml. Phosphatidylserine/diolein liposomes were made by mixing 75 μl of 10 mg/ml phosphatidylserine (Sigma) in CHCl3 with 60 μl of 2.5 mg/ml diolein in CHCl3 (Sigma) in a glass vial and evaporating the CHCl3 under N2. The film was suspended in 1 ml water and sonicated 6×15 sec with a microtip probe at room temperature.
To carry out the assay, 50 μl buffer, 20 μl histone, 20 μl liposomes, and inhibitor or solvent control were added to wells of a 96-well filter plate (Millipore) with enough water, if necessary, to make the final volume 110 μl. 20 μl of enzyme preparation solution were added and incubated for 10 minutes at room temperature. This was followed by the addition of 20 μl of ^32P ATP (75 μM ATP in water, labeled ATP at 25 μCi/ml) which was incubated for 15 minutes at room temperature. The reaction was terminated by the addition of 50 μl of 40% (w/v) trichloroacetic acid. The filters were washed by vacuum filtration with 5×125 μl of ice cold 10% (w/v) trichloroacetic acid. The filters were placed in scintillation fluor and counted to determine precipitated labeled phosphate incorporated into substrate. The percent inhibition was calculated in comparison to the uninhibited controls.

[3] = target: T3, Chk1 enzyme (Homo sapiens, UniProt O14757); assay: Chk1 enzyme inhibition assay; format: biochemical; settings: isolated Chk1 enzyme, GST-Cdc25 substrate; read-out: CHK1A IC50
T3 construct: purchased Onyx Pharmaceuticals
T3 sequence (O14757 1-476): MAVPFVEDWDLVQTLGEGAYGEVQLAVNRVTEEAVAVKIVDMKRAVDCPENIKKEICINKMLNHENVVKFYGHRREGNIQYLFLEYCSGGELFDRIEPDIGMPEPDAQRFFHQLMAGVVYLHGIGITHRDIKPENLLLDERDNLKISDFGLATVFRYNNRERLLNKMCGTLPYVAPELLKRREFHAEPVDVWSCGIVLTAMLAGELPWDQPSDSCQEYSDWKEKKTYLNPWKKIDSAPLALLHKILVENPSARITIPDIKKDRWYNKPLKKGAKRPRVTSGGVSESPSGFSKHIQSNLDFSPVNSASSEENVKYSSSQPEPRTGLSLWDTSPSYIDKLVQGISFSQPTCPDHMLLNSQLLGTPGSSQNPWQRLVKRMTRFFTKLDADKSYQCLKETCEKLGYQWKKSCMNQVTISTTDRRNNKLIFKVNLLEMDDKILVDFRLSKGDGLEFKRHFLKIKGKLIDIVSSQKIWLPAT
Method: The assay was carried out in round bottom polypropylene 96-well plates (Costar). Compounds were tested in serial dilutions beginning with a high concentration of 50 μM followed by up to nine 3-fold dilutions. Compounds were dissolved and diluted in DMSO. 2 μl of drug were spotted on the bottom of the assay plates, then diluted with 58 μl of Chk1 buffer (20 mM Tris, pH 8.0, 50 mM NaCl, 10% Glycerol, 10 mM MgCl2, 5 mM dithiothreitol), and mixed at room temperature for 1 minute. […] Contents of the wells were mixed for 1 minute and incubated at room temperature for 10 minutes. […] The contents were mixed for 1 minute and incubated at 30° C. for 30 minutes. The reaction was stopped by adding 50 μl of 120 mM EDTA to each well, except the control wells already containing EDTA. 140 μl of the contents of the wells were transferred to the wells of Reacti-Bind Glutathione Coated White 96-Well Plates (Pierce). Contents were mixed for 1 minute and incubated at room temperature for 1 hour. All of the wells were rinsed three times each with 300 μl PBS and air dried. 200 μl MicroScint 20 (Packard) was put in the wells. Plates were sealed with an adhesive cover and counted in a Top Count Microplate Scintillation counter (Packard). Activity of compounds was calculated in comparison to uninhibited control determinations in each assay.

[4] = test system: L1210 murine leukemia tumor cells; assay: Cell cycle distribution of L1210 cells treated in vivo; parameters: species or system mice; settings: cisplatin 6 mg/kg, compound of Example 80 20 mg/kg, 24 hours after administration
[5] = test system: HT-29 cells; assay: MPM-2 assay (mitotic index) in cultured HT-29 cells; format: cell-based; settings: compound 312.5 nM
Method: This assay uses […] antibody to quantitate the M-phase specific histological markers in the determination of a mitotic index (fraction of cells found in mitosis).
HT-29 cells were grown in Dulbecco's Modified Eagle Medium with high glucose, supplemented with 1 mM sodium pyruvate, 2 mM L-glutamine, 16 mM HEPES, 8 mM MOPS, and 10% fetal bovine serum. They were incubated at 37° C. in an atmosphere of 5% CO2 and 100% relative humidity.
Cells were seeded in 96-well tissue culture plates at 100 μl per well at a concentration of 40,000 per ml. The cells were allowed to attach and begin growing for 24 hours. 100 μl of adriamycin (ADR) at 2 μM (final=1 μM) was added to test cells and the cells incubated for 1 hour as above. Following the incubation, the plates were washed 2 times with growth media. The media was replaced with 100 μl fresh media and incubate a further 16 hours. Serial 2-fold dilutions of potential abrogators were added to the test wells. The rows that received nocodazole (NOC) have 2 μl NOC added at 2.5 μg/ml. The plates were then incubated an additional 6 hours. Following the incubation, the plates were centrifuged for 5 minutes at 4° C. at 200 g. One hundred microliters of Carnoy's fixative, 3 parts methanol to 1 part acetic acid, was added directly to each well and left at room temperature for 15 minutes. The media/fixative mixture was removed by suction and replaced with ice cold ethanol:acetic acid in a 20:1 ratio. The plates were stored at 4° C. until stained.
The fixed cells were stained for MPM-2 using the Upstate Biotechnology MPM-2 rhodamine detection kit per manufacturer's instructions. Briefly, the cells were washed with Dulbecco's phosphate buffered saline (DPBS) with calcium and magnesium followed by incubation with blocking buffer consisting of 8% bovine serum albumen (BSA) for a minimum of 1 hour. The cells were then washed with PBS one time and treated overnight at 4° C. with primary antibody at 5 μg/ml (100 μl per well) diluted with DPBS with 1% BSA. The cells were then washed twice for 15 minutes each with DPBS and then incubated with a 1:1000 dilution of rhodamine conjugated goat antimouse IgG in DPBS with 1% BSA for 1 hour. The secondary antibody was washed off in three 30-minute washes with DPBS. The cells were then counterstained using the Molecular Probes Mycoflour kit to stain nuclei following the instructions for the kit.
The stained cells were viewed under fluorescence microscopy using fluorescence filters suitable for detecting rhodamine and DAPI stains. Images were captured using a Spot digital camera and images analyzed using ImageQuant to quantitate total nuclei and to count MPM-2 positive cells.

[6] = test system: HT-29 cells; assay: Clonogenic assay in HT-29 cells ± Adriamycin; format: cell-based; settings: Homo sapiens, compound 250 nM
Method: This cellular assay is a measure of the toxicity of the test compounds in the absence and presence of DNA damage induced by a conventional chemotherapeutic agent.
HT-29 cells were grown in Dulbecco's Modified Eagle Medium with high glucose, supplemented with 1 mM sodium pyruvate, 2 mM L-glutamine, 16 mM HEPES, 8 mM MOPS, and 10% fetal bovine serum. The cells were incubated at 37° C. in an atmosphere of 5% CO2 and 100% relative humidity.
Two or three T-75 tissue culture flasks were seeded at about 50% confluency in 30 ml media and incubated for approximately 24 hours. Adriamycin (ADR) (dissolved at 5 mM in distilled water (dH2O)) was added to the flasks to a final concentration of 1 uM or 500 nM. One flask received no ADR. The cells were allowed to incubate with the ADR for 1 hour. All flasks were then washed twice with 20 ml media allowed to incubate a further 16 hours in 30 ml media.
The stock agar (3.2% Seaplaque GTG Agarose (BioWhittaker Molecular Applications)) was suspended in distilled water and autoclaved for 20 minutes. The agar was melted prior to use in a microwave oven. […]
The cells were trypsinized using Trypsin-EDTA and their concentration adjusted to […] with media. […] The colonies were counted using a Hamamatsu video imaging system and ImageQuant software.

Structure (SMILES): N.N.[Cl][Pt][Cl] [Cisplatin, reference compound]
Cell cycle distribution of L1210 cells, G1 [4]: 14.0% | Cell cycle distribution of L1210 cells, G2M [4]: 59.6% | Cell cycle distribution of L1210 cells, S [4]: 26.4%

Structure (SMILES): O=C1NC(=O)c2c1c(-c1ccccc1Cl)cc1c2c2cc(O)ccc2n1CCCO [Example 80, 4-(2-Chlorophenyl)-9-hydroxy-6-(3-hydroxypropyl)pyrrolo[3,4-c]carbazole-1,3(2H,6H)-dione]
IC50 [2]: 1490 nM | Cell cycle distribution of L1210 cells, G1 [4]: 60.0% | Cell cycle distribution of L1210 cells, G2M [4]: 12.4% | Cell cycle distribution of L1210 cells, S [4]: 27.6%

Structure (SMILES): CN(C)CCNC(=O)CCn1c2ccc(O)cc2c2c3c(c(-c4ccccc4)cc21)C(=O)NC3=O [Example 214, N-[2-(Dimethylamino)ethyl]-3-(9-hydroxy-1,3-dioxo-4-phenyl-2,3-dihydropyrrolo[3,4-c]carbazol-6 (1H)-yl)propanamide]
IC50 [2]: 171 nM

Structure (SMILES): CN(C)CCCOc1cc2c(cc1O)c1c3c(c(-c4ccccc4Cl)cc1n2C)C(=O)NC3=O [Example 363, 4-(2-Chlorophenyl)-8-[3-(dimethylamino)propoxy]-9-hydroxy-6-methylpyrrolo[3,4-c]carbazole-1,3(2H,6H)-dione]
% of cells in M phase, + Media ([5]; 6 hours): 26.4% | % of cells in M phase, + ADR ([5]; after ADR 1 μM 1 hour and 16 hours): 18.9% | % of cells in M phase, + ADR + NOC ([5]; after ADR 1 μM, with nocodazole 6 hours): 86.2% | % of cells in M phase, + NOC ([5]; with nocodazole 6 hours): 37.2%

Structure (SMILES): Cn1c2cc(OCCCN3CCCC3)c(O)cc2c2c3c(c(-c4ccccc4Cl)cc21)C(=O)NC3=O [Example 366, 4-(2-Chlorophenyl)-9-hydroxy-6-methyl-8-[3-(1-pyrrolidinyl)propoxy]pyrrolo[3,4-c]carbazole-1,3(2H,6H)-dione]
activity at 0.25 µM ([6]; Adriamycin pretreatment 1 hour, read-out: % of Control Colonies With DNA Damage): 2.8% | activity at 0.25 µM ([6]; no Adriamycin, read-out: % of Control Colonies With No DNA Damage): 38%

Results, then the molecule that gave them:

IC50 [1]: 11 nM | IC50 [2]: 480 nM | IC50 [3]: 435 nM
Structure (SMILES): COc1ccc2[nH]c3c(c2c1)C1C(=O)NC(=O)C1C(c1ccccc1Cl)C3 (mixture of isomers) [Example 68, 4-(2-Chlorophenyl)-9-methoxy-4,5,6,10c-tetrahydropyrrolo[3,4-c]carbazole-1,3(2H,3aH)-dione]

IC50 [2]: 1800 nM
Structure (SMILES): O=C1NC(=O)c2c1c(-c1c(Cl)cccc1Cl)cc1c2c2cc(O)ccc2n1CCO [Example 94, 4-(2,6-Dichlorophenyl)-9-Hydroxy-6-(2-hydroxyethyl)pyrrolo[3,4-c]carbazole-1,3(2H,6H)-dione]

IC50 [2]: 1500 nM
Structure (SMILES): O=C(O)CCn1c2ccc(O)cc2c2c3c(c(-c4ccccc4Cl)cc21)C(=O)NC3=O [Example 230, 3-(4-(2-Chlorophenyl)-9-hydroxy-1,3-dioxo-2,3-dihydropyrrolo[3,4-c]carbazol-6 (1H)-yl)propanoic acid]

IC50 [2]: > 4000 nM
Structure (SMILES): O=C1NC(=O)c2c1c(-c1ccccc1)cc1oc3ccc(O)cc3c21 [Example 369, 9-Hydroxy-4-phenyl-1H-[1] benzofuro[3,2-e]isoindole-1,3(2H)-dione]
